The values that follow come from patent US20240410013A1, “METHODS AND COMPOSITIONS FOR CLASSIFYING AND TREATING KIDNEY CANCER” (Genentech, Inc., priority 2021, published 2024).

This experiment deals with previously untreated advanced renal cell carcinoma. Description: IMmotion151 (NCT02420821) Phase 3 randomized trial, atezolizumab plus bevacizumab versus sunitinib, clinical outcomes by biomarker subgroup. It is filed as in vivo, human. The text has this:
IMmotion151 (NCT02420821) was a multicenter, open-label, Phase 3, randomized controlled trial of atezolizumab plus bevacizumab (n=454) versus sunitinib (n=461) in patients with previously untreated advanced RCC (Rini et al. Lancet. 393: 2404-2415 (2019)). The study design, methods, and primary clinical findings from IMmotion151 have been reported previously (Rini et al. Lancet. 393: 2404-2415 (2019)).
Briefly, previously untreated patients with unresectable locally advanced or metastatic renal cell carcinoma with any component of clear-cell or sarcomatoid histology were randomized to receive atezolizumab 1200 mg+bevacizumab 15 mg/kg (atezolizumab+bevacizumab) once every 3 weeks (n=454) or sunitinib 50 mg once daily (n=461; 4 weeks on, 2 weeks off). The co-primary endpoints were investigator-assessed progression-free survival (PFS) in patients with ≥1% expressing PD-L1 on immune cells (IC, PD-L1^+) and overall survival (OS) in the intent-to-treat (ITT) population.
IMmotion151 (NCT02420821) was a multicenter, open-label, Phase 3, randomized controlled trial of atezolizumab plus bevacizumab (n=454) vs. sunitinib (n=461) in patients with previously untreated advanced renal cell carcinoma (Rini et al. Lancet. 393: 2404-2415 (2019)).
RNA-seq data from the randomized Phase II trial IMmotion150 were processed as described above. Transcriptional signature scores were derived from T-effector and angiogenesis signatures (McDermott et al. Nat Med. 24: 749-757 (2018)) for each sample, and hazard ratios were calculated at various gene expression scores. Gene expression score cutoffs of 2.93 (40% prevalence) and 5.82 (50% prevalence) were defined for the T-effector and angiogenesis signatures in IMmotion150 based on a combination of prevalence and hazard ratio plateauing. These absolute thresholds were prospectively applied to the IMmotion151 data to classify tumors with high and low T-effector and angiogenesis signatures. Cox-proportional hazard regression models were fit to compare PFS in atezolizumab+bevacizumab or sunitinib-treated patients in gene expression high and low subsets.
All analyses were conducted using Rv3.6.1. Unless otherwise stated, all comparisons for continuous variables use the two-sided Mann-Whitney test (R function wilcox.test) for two groups and the Kruskal-Wallis test (R function kruskal.test) for more than two groups. Dunn's post-hoc test was applied with Benjamini-Hochberg multiple testing correction for pairwise comparisons. For categorical variables, Pearson's Chi-squared test with continuity correction was used (R function chisq.test). Unless otherwise stated, false discovery rate (FDR)-adjusted p-values are reported. *: p<0.05; **: p<0.01; ***: p<0.001. Survival analyses were conducted using Cox-proportional hazard models using the R survival package (v 3.1.7). Log-rank p-values were reported for survival analyses including more than two groups. For all boxplots, the horizontal line represents the median. The lower and upper hinges correspond to the first and third quartiles. The upper whisker extends from the hinge to the largest value no further than 1.5*IQR from the hinge (where IQR is the inter-quartile range, or distance between the first and third quartiles). The lower whisker extends from the hinge to the smallest value at most 1.5*IQR of the hinge.

[1] abbreviates: tumors with CDKN2A/B alterations.

As for `CCN(CC)CCNC(=O)c1c(C)[nH]c(/C=C2\C(=O)Nc3ccc(F)cc32)c1C` [sunitinib], the ORR was found to be 27% (PBRM1 non-mutant tumors), 3.1% (Proliferative cluster (#5)) and 20% under setting [1]. The mPFS runs as follows: (PBRM1 non-mutant tumors) 6.9 months; (Stromal/Proliferative cluster (printed #5)) 5.2 months; (loss-of-function mutations in ARID1A) 6.8 months; (loss-of-function mutations in KMT2C) 7.0 months; (tumors harboring PBRM1 mutations) 11.2 months; under setting [1], 4.1 months. In addition, where the note is “T-effector/Proliferative cluster (#4)”, the “objective response rate (ORR)” value was found to be 19.4%. Moreover, the Objective response rate (sRCC (sarcomatoid RCC) patients, RECIST 1.1) amounted to 14%. Besides, the complete responses under setting [1] worked out at 0%. Where the note is “within sunitinib treatment arm, 95% CI 0.47, 0.75”, the “PFS hazard ratio, Angiogenesis signature high vs low” value stood at 0.59. Moreover, the “PFS hazard ratio, PBRM1 mutant vs non-mutant tumors” value (within sunitinib-treated patients, 95% CI 0.51, 0.87) came to 0.67.
